Experimental findings from patent US7238507B2, “Aspergillus ochraceus 11 alpha hydroxylase and oxidoreductase” (priority 2000, dated 2007) are described below.

Structures are written as SMILES.

Test [1] concerns Aspergillus ochraceus 11 alpha hydroxylase. Kind of test: HPLC assay of conversion of androstenedione to 11α-hydroxyandrostenedione by subcellular fractions of baculovirus-infected Sf9 cells co-expressing 11 alpha hydroxylase and human oxidoreductase. The format is biochemical. The settings on record: 11 alpha hydroxylase co-expressed in Sf-9 insect cells with human oxidoreductase. The method, then:
Microsomal and mitochondrial subcellular fractions were prepared from insect cells co-infected with recombinant baculoviruses expressing recombinant Aspergillus ochraceus 11 alpha hydroxylase and human oxidoreductase cloned from HepG2 cell RNA. The subcellular fractions were incubated with 250 μM androstenedione (AD) in the presence of an NADPH-generating system for 120 minutes, and the resulting products were separated by HPLC and monitored by ultraviolet detection at 247 nm. Hydroxlase activity was found in the microsomal fraction, as expected, but also appeared in the mitochondrial fraction. […] Panel A illustrates a reaction carried out using enzyme prepared from a mitochondrial fraction. The peak in panel A that elutes after AD appears to be testosterone. When a microsomal fraction was used, almost as much AD was converted to 11 alpha hydroxy AD, but relatively more testosterone was also produced. Panel B illustrates the same reaction carried out for 120 minutes without a source of enzyme. Panel C illustrates an HPLC tracing with 11α-hydroxyandrostenedione standard added to incubation buffer.
Sf9 cells were co-infected with virus particles that contained the steroid 11 alpha hydroxylase cDNA and a separate virus containing a human NADPH P450-oxidoreductase. Both viruses were added at a multiplicity of infection (MOI) ratio of 0.1:0.01 (11 aOH to oxr). […]

Test [2] concerns Aspergillus ochraceus spores. Kind of test: 11 α-hydroxylation of canrenone by A. ochraceus spores, media extract analysed by HPLC. The format is cell-based. Conditions: spores incubated approximately 26 hours at 30° C. with 0.1 g canrenone in 400 ml; data not shown. The method, then:
Aspergillus ochraceus ATCC 18500 stock culture (50 ul) was grown for 3-4 days on plates containing sporulation medium: 50 g/L molasses, 5 g/L cornsteep liquid, 5 g/L KH2PO4, 25 g/L NaCl, 25 g/L glucose, 20 g/L agar, and 0.4 g/L progesterone, pH 5.8. Progesterone was included in the media to induce the steroid 11 α-hydroxylase. Spores were scraped from the plates into 5 to 7 ml saline, washed in saline, collected by centrifugation, and suspended in saline containing 15% glycerol. The spores were frozen on dry ice and stored at −80° C. Approximately 0.8 g spores were incubated at 30° C. in a 1 liter flask containing 400 ml 1% glucose, 50 mM KH2PO4 and 0.1 g canrenone, pH 7.0. This treatment prior to spore disruption has three benefits: (1) to induce the steroid 11 α-hydroxylase by incubation with canrenone; (2) to determine whether the spores were catalyzing the 11 α-hydroxylation of canrenone; (3) and to soften the spore wall. After approximately 26 hours of incubating with shaking at 30° C. to provide better aeration, the spores were collected by centrifugation. […]
Approximately 160 ml of media from the spore induction was extracted three times with 70 ml ethyl acetate to collect the steroid substrate and products. […] The residue was dissolved in 8 ml methanol so that the final concentration of canrenone was approximately 15 mM (assuming quantitative recovery). […]

Consider `C[C@]12CCC(=O)C=C1CC[C@@H]1[C@@H]2CC[C@]2(C)C(=O)CC[C@@H]12` [AD, Androst-4-ene-3,17-dione(8CI,9CI)], for which, in test [1], the “conversion of the steroid substrate to 11 alpha-hydroxy-AD as determined by HPLC analysis” value is “successfully catalyzed the conversion”. For `C[C@]12CCC(=O)C=C1C=C[C@@H]1C2CC[C@@]2(C)C1CC[C@@]21CCC(=O)O1` (stereo partly drawn) [canrenone, Pregna-4,6-diene-21-carboxylic acid,17-hydroxy-3-oxo-,γ-lactone, (17α)-(9CI)], in test [2], the “11 α-hydroxylation of canrenone, HPLC of media extract monitored at 254 nm” value is recorded as “exhibited a component with the same retention time as the 11 α-hydroxy canrenone standard”.
